Source: patent publication US20240150368A1, “ULK INHIBITORS AND METHODS OF USE THEREOF” (Deciphera Pharmaceuticals, LLC, priority 2022, published 2024)
pIC50: −log10 of the molar value.

Key:
[1] = molecular target: T1, ULK1 kinase (Homo sapiens, UniProt O75385, E37A/K38A); assay: Biochemical assay for ULK1 (coupled pyruvate kinase/lactate dehydrogenase assay); conditions: 1 mM ATP, 0.1 nM ULK1; read-out: ULK1 (inhibition of biochemical activity), IC50
T1 construct: (residues 1-283; ID NO: 1); purchased Beryllium
T1 sequence (O75385 1-283 E37A/K38A): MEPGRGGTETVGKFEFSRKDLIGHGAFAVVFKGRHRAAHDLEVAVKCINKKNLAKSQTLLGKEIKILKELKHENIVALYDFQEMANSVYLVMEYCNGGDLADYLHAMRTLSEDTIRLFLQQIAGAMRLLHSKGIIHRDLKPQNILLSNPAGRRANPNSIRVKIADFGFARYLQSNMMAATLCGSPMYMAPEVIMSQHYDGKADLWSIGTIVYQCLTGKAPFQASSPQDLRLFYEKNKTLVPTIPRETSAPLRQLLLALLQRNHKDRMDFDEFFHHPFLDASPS
Description: Biochemical Assay for ULK1 (SEQ. ID NO: 1)
Activity of ULK1 kinase was determined spectroscopically using a coupled pyruvate kinase/lactate dehydrogenase assay that continuously monitors the ATP hydrolysis-dependent oxidation of NADH (e.g., Schindler et al. Science (2000) 289: 1938-1942). Assays were conducted in 384-well plates (100 μL final volume) using 0.1 nM ULK1 (from Beryllium), 0.075 mM peptide substrate (YANWLAASIYLDGKKK), 1.5 units pyruvate kinase, 2.1 units lactate dehydrogenase, 1 mM phosphoenol pyruvate, 0.28 mM NADH and 1 mM ATP in assay buffer (100 mM Tris, pH 7.5, 15 mM MgCl2, 0.5 mM DTT, 0.004% (w/v) BSA, and 0.004% Triton X-100). Inhibition of ULK1 was measured by adding serial diluted test compound (final assay concentration of 1% DMSO). A decrease in absorption at 340 nm was monitored continuously for 6 h at 30° C. on a multi-mode microplate reader (BioTek). The reaction rate was calculated using the 2-3 h time frame. The reaction rate at each concentration of compound was converted to percent inhibition using controls (i.e., reaction with no test compound and reaction with a known inhibitor) and IC50 values were calculated using software routines in Prism (GraphPad software).

[2] = system: ULK kinase substrate ATG13 (pS318-ATG13) in A549 (KRAS mutant) cells; assay: pATG13 levels of mutant KRas A549 cells after treatment with ULK inhibitors in combination with trametinib (ELISA); assay type: cell-based, human
Description: Cellular Inhibition of ULK Kinase Substrate ATG13 Protein pATG13 Levels of Mutant KRas A549 Cells after Treatment with ULK Inhibitors in Combination with Trametinib
(§1) A549 (KRAS mutant) human lung cancer cells (6,000 cells/well) were added to a 384-well tissue-culture treated plate in 50 μL of pre-warmed DMEM medium supplemented with 10% characterized fetal bovine serum (Invitrogen, Carlsbad, CA), 100 units/mL penicillin G, and 100 μg/mL streptomycin and allowed to grow overnight at 37° C., 5% CO2, and 95% humidity. The following day, 10 μL of media containing trametinib or DMSO as a control was added to wells. The final concentration of trametinib in wells was 250 nM. A dose response of a test compound (0.6 μL per well) was added. DMSO (0.6 μL) was added to control wells. The plate was briefly shaken to mix wells and then incubated at 37° C. overnight. The next day, the media was aspirated and cells were washed with Dulbecco's Phosphate Buffered Saline (Gibco). Cells were lysed using MPER lysis buffer (Pierce, Rockford, IL) containing Halt Phosphatase and Protease Inhibitors (Pierce, Rockford, IL) and Phosphatase inhibitor cocktail 2 (Sigma, St. Louis, MO) at 4° C. for 10 min with shaking.
(§2) Cellular levels of phospho-Serine 318 ATG13 (pATG13) were measured via an ELISA method. Total ATG13 Antibody (Cell Signaling Cat #13273) was used to coat the wells. The plate was incubated at 4° C. overnight and washed with ELISA wash buffer (Biolegend Cat #421601). The wells were then blocked with assay diluent (Biolegend Cat #421203) for 1 h at rt. Plate wells were washed with ELISA wash buffer. Cell lysate was added to wells and incubated at rt for 2 h. Plate wells were washed with ELISA wash buffer. Biotinylated pS318-ATG13 antibody (Rockland Immunochemicals Cat #600-401-C49) was diluted in assay diluent and added to each well and incubated at rt for 1 h. Plate wells were washed with ELISA wash buffer. Streptavidin linked to horseradish peroxidase (Thermo Fisher Cat #21140) was diluted in assay diluent and added to each well and incubated at rt for 1 h. Plate wells were washed with ELISA wash buffer. High sensitivity TMB substrate (Biolegend Cat #421101) was added to each well and incubated at rt for 20 min. The reaction was stopped with 2N Sulfuric Acid. The plate was analyzed at on a plate reader measuring absorbance at 450 nm and 540 nm (background). Signal was calculated by first subtracting the background absorbance at 540 nm from the absorbance at 450 nm for each well. Next, the background corrected absorbance at 450 nm from blank wells was subtracted from test wells. Data was compared to control wells to determine % ATG13 phosphorylation. GraphPad Prism was used to calculate IC50 values.

[3] = system: ULK kinase substrate ATG13 (pS318-ATG13) in MiaPaCa-2 cells; assay: pATG13 levels of mutant KRas MiaPaCa-2 cells after treatment with ULK inhibitors in combination with trametinib (ELISA); assay type: cell-based, human
Description: pATG13 Levels of Mutant KRas MiaPaCa-2 Cells after Treatment with ULK Inhibitors in Combination with Trametinib
as §1, with “MiaPaCa-2” for “A549 (KRAS mutant)”, “pancreatic” for “lung”, “(10000” for “(6,000”, “G,” for “G, and”, “streptomycin, and 2.5% Horse Serum” for “streptomycin”, “minutes” for “min”
as §2, with “2.0N sulfuric acid.” for “2N Sulfuric Acid.”

[4] = molecular target: T2, ULK2 kinase (Homo sapiens, UniProt Q8IYT8); assay: Biochemical assay for ULK2 (coupled pyruvate kinase/lactate dehydrogenase assay); conditions: 1 mM ATP, 1 nM ULK2; read-out: ULK2 (inhibition of biochemical activity), IC50
T2 construct: (residues 1-306 with N-terminal GST and His tag; ID NO: 2); purchased Signal Chem U02-11G
Description: Biochemical Assay for ULK2 (SEQ. ID NO: 2)
Activity of ULK2 kinase was determined spectroscopically using a coupled pyruvate kinase/lactate dehydrogenase assay that continuously monitors the ATP hydrolysis-dependent oxidation of NADH (e.g., Schindler et al. Science (2000) 289: 1938-1942). Assays were conducted in 384-well plates (100 μL final volume) using 1 nM ULK2 (Signal Chem U02-11G), 200 μM ULKtide, 1.5 units pyruvate kinase, 2.1 units lactate dehydrogenase, 1 mM phosphoenol pyruvate, 0.28 mM NADH and 1 mM ATP in assay buffer (100 mM Tris, pH 7.5, 15 mM MgCl2, 0.5 mM DTT, 0.1% octyl-glucoside, 0.002% (w/v) BSA, and 0.002% Triton X-100). Inhibition of ULK2 was measured by adding serial diluted test compound (final assay concentration of 1% DMSO). A decrease in absorption at 340 nm was monitored continuously for 6 h at 30° C. on a multi-mode microplate reader (BioTek). The reaction rate was calculated using the 2-3 h time frame. The reaction rate at each concentration of compound was converted to percent inhibition using controls (i.e., reaction with no test compound and reaction with a known inhibitor) and IC50 values were calculated by fitting a four-parameter sigmoidal curve to the data using Prism (GraphPad software).

T2 sequence (Q8IYT8 with tags, fused parts or gaps): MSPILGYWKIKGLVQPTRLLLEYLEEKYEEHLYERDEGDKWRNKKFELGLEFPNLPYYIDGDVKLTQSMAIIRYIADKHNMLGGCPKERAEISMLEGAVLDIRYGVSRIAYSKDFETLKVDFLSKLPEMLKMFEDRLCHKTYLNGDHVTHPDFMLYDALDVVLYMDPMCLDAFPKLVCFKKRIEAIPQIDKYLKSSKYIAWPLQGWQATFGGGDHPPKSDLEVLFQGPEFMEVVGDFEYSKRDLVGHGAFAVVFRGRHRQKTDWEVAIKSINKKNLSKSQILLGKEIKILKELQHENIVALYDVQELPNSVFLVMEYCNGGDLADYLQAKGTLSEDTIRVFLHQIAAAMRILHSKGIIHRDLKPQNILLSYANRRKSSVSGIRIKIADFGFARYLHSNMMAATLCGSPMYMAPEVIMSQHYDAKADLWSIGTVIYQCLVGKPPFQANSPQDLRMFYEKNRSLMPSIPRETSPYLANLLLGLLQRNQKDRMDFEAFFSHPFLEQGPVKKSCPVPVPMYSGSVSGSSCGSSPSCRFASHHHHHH

SMILES | pIC50 [1] | pIC50 [2] | pIC50 [3] | pIC50 [4]
CC/C(Nc1cnn(C2CCN(C(C)C)CC2)c1)=C1/C(=O)Nc2ccc(C(=O)N(C)C)cc21 [Example 2, (Z)-3-(1-((1-(1-isopropylpiperidin-4-yl)-1H-pyrazol-4-yl)amino)propylidene)-N,N-dimethyl-2-oxoindoline-5-carboxamide] | 6.30 to 7.00 | < 6.22 | 6.52 to 7.00 | –
CC/C(Nc1cnn(C(C)C)c1)=C1/C(=O)Nc2ccc(C(=O)C3CC3)cc21 [Example 6, (Z)-5-(cyclopropanecarbonyl)-3-(1-((1-isopropyl-1H-pyrazol-4-yl)amino)propylidene)indolin-2-one] | 7.00 to 8.00 | 6.52 to 7.00 | – | 6.30 to 7.00
CC/C(Nc1ccc(N2CCN(C)CC2)cc1)=C1/C(=O)Nc2ccc(C(=O)NCCOC)cc21 [Example 11] | 7.00 to 8.00 | 6.22 to 6.52 | ≥ 7.00 | –
CC/C(Nc1cnn(C2CCN(CC3CCC3)CC2)c1)=C1/C(=O)Nc2ccc(C(=O)NCC(C)C)cc21 [Example 40] | ≥ 8.00 | ≥ 7.00 | ≥ 7.00 | –
CC/C(Nc1cnn(C2CCN(CCOC)CC2)c1)=C1/C(=O)Nc2ccc(C(=O)NCC(C)C)cc21 [Example 41] | ≥ 8.00 | ≥ 7.00 | ≥ 7.00 | –
CC/C(Nc1ccc(N2CCN(C)CC2)c(F)c1)=C1/C(=O)Nc2ccc(C(=O)NCC(F)(F)F)cc21 [Example 72] | ≥ 8.00 | – | ≥ 7.00 | ≥ 8.00
CC/C(Nc1ccc(N2CCN(C)CC2)cc1F)=C1/C(=O)Nc2ccc(C(=O)NCC(F)(F)F)cc21 [Example 73] | 6.30 to 7.00 | – | 6.52 to 7.00 | 6.30 to 7.00
CC/C(Nc1cnc(N2CCN(C)CC2)nc1)=C1/C(=O)Nc2ccc(C(=O)NCC(F)(F)F)cc21 [Example 76] | 6.30 to 7.00 | – | 6.52 to 7.00 | < 6.30
CC/C(Nc1cnn(C2CCN(C(C)C)CC2)c1)=C1/C(=O)Nc2ccc(C(=O)NCC3(C)CCCO3)cc21 (stereo not drawn) [Example 174] | ≥ 8.00 | ≥ 7.00 | – | 7.00 to 8.00

Other lines, results leading:

pIC50 [1] | pIC50 [2] | pIC50 [3] | pIC50 [4] | SMILES
≥ 8.00 | ≥ 7.00 | ≥ 7.00 | – | CCCNC(=O)c1ccc2c(c1)/C(=C(\CC)Nc1cnn(C3CCN(C(C)C)CC3)c1)C(=O)N2 [Example 15]
≥ 8.00 | 6.22 to 6.52 | ≥ 7.00 | – | C/C(Nc1cnn(C2CCN(C(C)C)CC2)c1)=C1/C(=O)Nc2ccc(C(=O)NCC(F)(F)F)cc21 [Example 24]
≥ 8.00 | ≥ 7.00 | ≥ 7.00 | – | CC/C(Nc1cnn(C2CCN(C3CCC3)CC2)c1)=C1/C(=O)Nc2ccc(C(=O)NCC(C)C)cc21 [Example 32]
≥ 8.00 | ≥ 7.00 | ≥ 7.00 | – | CC/C(Nc1cnn(C2CCN(C3CCCC3)CC2)c1)=C1/C(=O)Nc2ccc(C(=O)NCC(C)C)cc21 [Example 33]
≥ 8.00 | ≥ 7.00 | ≥ 7.00 | – | CC/C(Nc1cnn(C2CCN(C3CCCCC3)CC2)c1)=C1/C(=O)Nc2ccc(C(=O)NCC(C)C)cc21 [Example 34]
≥ 8.00 | 6.22 to 6.52 | ≥ 7.00 | – | CC/C(Nc1cnn(C2CCN(C3COC3)CC2)c1)=C1/C(=O)Nc2ccc(C(=O)NCC(C)C)cc21 [Example 35]
≥ 8.00 | 6.52 to 7.00 | ≥ 7.00 | – | CC/C(Nc1cnn(C2CCN(C3CCOC3)CC2)c1)=C1/C(=O)Nc2ccc(C(=O)NCC(C)C)cc21 (stereo not drawn) [Example 36]
≥ 8.00 | ≥ 7.00 | ≥ 7.00 | – | CC/C(Nc1cnn(C2CCN(CC(C)C)CC2)c1)=C1/C(=O)Nc2ccc(C(=O)NCC(C)C)cc21 [Example 38]
≥ 8.00 | ≥ 7.00 | ≥ 7.00 | – | CC/C(Nc1cnn(C2CCN(CC3CC3)CC2)c1)=C1/C(=O)Nc2ccc(C(=O)NCC(C)C)cc21 [Example 39]
